# Assays:
# [1] = test system: Human osteosarcoma MG-63 cells; test: Inhibition of osteocalcin production from osteoblast cell line MG-63; type: cell-based; conditions: Vitamin D 10 nM, 48 hours
# Method: 7. Inhibition of Osteocalcin Production from Osteoblast Cell Line MG-63
# The next day, wells are replaced with fresh media. Cells are treated with Vitamin D (Sigma, Cat. No. D1530) to a final concentration of 10 nM, and with the test compounds in concentrations of 10^−6 M to 10^−9 M, in a total volume of 200 μL per well. Samples are done in duplicates. […] Positive control wells receive Vitamin D only, without compounds, and represent maximum (100%) amount of osteocalcin production. Plates are incubated at 37° C. incubator for 48 hours and supernatants are harvested at the end of incubation. Amounts of osteocalcin in the supernatants are determined by the Glype osteocalcin ELISA kit (Zymed, Cat. No. 99-0054) according to manufacture's protocol. Inhibition of osteocalcin by test compounds is expressed in percentage relative to positive controls. IC50 values of the test compounds are derived by non-lineal curve fitting.
# [2] = biological target: T1, human glucocorticoid receptor (GR) complex (Homo sapiens, UniProt P04150); test: Glucocorticoid receptor competitive binding assay (fluorescence polarization, TAMRA-labeled dexamethasone probe); conditions: compounds of Formula (IA)
# T1 construct: made in house; host or cells: insect expression system (baculovirus lysate)
# T1 sequence (P04150 1-777): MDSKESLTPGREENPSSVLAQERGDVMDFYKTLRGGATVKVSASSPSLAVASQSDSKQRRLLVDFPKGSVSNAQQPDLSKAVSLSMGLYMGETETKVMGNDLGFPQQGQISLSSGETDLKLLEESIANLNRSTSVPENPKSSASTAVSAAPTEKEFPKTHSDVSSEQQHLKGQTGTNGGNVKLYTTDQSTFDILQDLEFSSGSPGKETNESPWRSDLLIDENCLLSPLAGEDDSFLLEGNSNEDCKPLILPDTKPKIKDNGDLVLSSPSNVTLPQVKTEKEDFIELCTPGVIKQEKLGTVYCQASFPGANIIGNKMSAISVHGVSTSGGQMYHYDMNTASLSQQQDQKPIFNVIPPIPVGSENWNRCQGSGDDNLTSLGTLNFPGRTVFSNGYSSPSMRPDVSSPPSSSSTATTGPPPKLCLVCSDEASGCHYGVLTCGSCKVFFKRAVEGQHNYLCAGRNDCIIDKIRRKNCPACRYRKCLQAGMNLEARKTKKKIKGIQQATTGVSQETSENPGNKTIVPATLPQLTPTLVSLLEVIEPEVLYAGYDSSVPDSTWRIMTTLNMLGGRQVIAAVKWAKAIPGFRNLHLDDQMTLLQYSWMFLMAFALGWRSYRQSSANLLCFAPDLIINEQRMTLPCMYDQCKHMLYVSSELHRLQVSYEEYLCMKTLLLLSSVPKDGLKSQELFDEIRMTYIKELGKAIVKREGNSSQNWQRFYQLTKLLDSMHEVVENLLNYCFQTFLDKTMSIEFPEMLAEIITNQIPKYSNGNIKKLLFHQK
# Outline: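 Fluorescence-polarization competition against 15 nM TAMRA-dexamethasone (stock added to the mix) for human GR complex from baculovirus lysate diluted 1:170. Buffer: 10 mM TES, 50 mM KCl, 20 mM Na2MoO4, 1.5 mM EDTA, 0.04% CHAPS, 10% glycerol, 1 mM DTT, pH 7.4. IC50 from 4-parameter logistic fit.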
# [3] = test system: glucocorticoid receptor function; test: one or more of the above assays (GR binding and glucocorticoid receptor cell assays: aromatase, IL-6, TAT, MMTV-Luc, IL-8, ICAM-Luc); type: cell-based; conditions: assay not specified per compound
activity in the GR binding assay [2],SMILES,inhibit the vitamin D stimulated production of osteocalcin [1],activity as agonists of the glucocorticoid receptor function in one or more of the above assays [3]
,CC(C)(CC(O)(Cc1cc2cc(-c3cccnc3)ccc2[nH]1)C(F)(F)F)c1cc(F)cc2c1OCC2 (stereo not drawn),inhibit,
,"Cc1ccc(F)cc1C(C)(C)CC(O)(Cc1cc2cc(N3CCCCC3)ncc2[nH]1)C(F)(F)F (stereo not drawn) [1,1,1-Trifluoro-4-(5-fluoro-2-methylphenyl)-4-methyl-2-(5-piperidin-1-yl-1H-pyrrolo[2,3-c]pyridin-2-ylmethyl)pentan-2-ol]",inhibit,
,"Cc1ccc(F)cc1C(C)(C)CC(O)(Cc1cc2cc(N3CCOCC3)ncc2[nH]1)C(F)(F)F (stereo not drawn) [1,1,1-Trifluoro-4-(5-fluoro-2-methylphenyl)-4-methyl-2-(5-morpholin-4-yl-1H-pyrrolo[2,3-c]pyridin-2-ylmethyl)pentan-2-ol]",inhibit,
potent activity,"CC(C)(CC(O)(Cc1cc2ccccc2[nH]1)C(F)(F)F)c1ccccc1F (stereo not drawn) [1,1,1-Trifluoro-4-(2-fluorophenyl)-2-(1H-indol-2-ylmethyl)-4-methylpentan-2-ol]",,potent agonists
potent activity,"CCC(C)(CC(O)(Cc1ccnc2ccccc12)C(F)(F)F)c1ccccc1 (stereo not drawn) [1,1,1-Trifluoro-4-methyl-4-phenyl-2-quinolin-4-ylmethylhexan-2-ol]",,potent agonists
potent activity,"Cc1cc(CC(O)(CC(C)(C)c2cccc(F)c2)C(F)(F)F)cc(C)n1 (stereo not drawn) [2-(2,6-Dimethylpyridin-4-ylmethyl)-1,1,1-trifluoro-4-(3-fluorophenyl)-4-methylpentan-2-ol]",,potent agonists
potent activity,"Cc1cc2[nH]c(CC(O)(CC(C)(C)c3cc(F)ccc3C)C(F)(F)F)cc2cn1 (stereo not drawn) [1,1,1-Trifluoro-4-(5-fluoro-2-methylphenyl)-4-methyl-2-(6-methyl-1H-pyrrolo[3,2-c]pyridin-2-ylmethyl)pentan-2-ol]",,potent agonists
potent activity,"Cc1cc(C(C)(C)CC(O)(Cc2cc3ccccc3[nH]2)C(F)(F)F)ccc1F (stereo not drawn) [1,1,1-Trifluoro-4-(4-fluoro-3-methylphenyl)-2-(1H-indol-2-ylmethyl)-4-methylpentan-2-ol]",,potent agonists
potent activity,"CC(C)(CC(O)(Cc1cc2cnccc2[nH]1)C(F)(F)F)c1cc(Cl)cc2c1OCC2 (stereo not drawn) [4-(5-Chloro-2,3-dihydrobenzofuran-7-yl)-1,1,1-trifluoro-4-methyl-2-(1H-pyrrolo[3,2-c]pyridin-2-ylmethyl)pentan-2-ol]",,potent agonists
potent activity,"COc1ccc(F)cc1C(C)(C)CC(O)(Cc1cc2cnc(C)cc2[nH]1)C(F)(F)F (stereo not drawn) [1,1,1-Trifluoro-4-(5-fluoro-2-methoxyphenyl)-4-methyl-2-(6-methyl-1H-pyrrolo[3,2-c]pyridin-2-ylmethyl)pentan-2-ol]",,potent agonists
potent activity,"CC(C)(CC(O)(Cc1cc2cnccc2[nH]1)C(F)(F)F)c1cc(Br)cc2c1OCC2 (stereo not drawn) [4-(5-Bromo-2,3-dihydrobenzofuran-7-yl)-1,1,1-trifluoro-4-methyl-2-(1H-pyrrolo[3,2-c]pyridin-2-ylmethyl)pentan-2-ol]",,potent agonists
potent activity,"COc1ccc(F)cc1C(C)(C)CC(O)(Cc1cc2cnccc2[nH]1)C(F)F (stereo not drawn) [1,1-Difluoro-4-(5-fluoro-2-methoxyphenyl)-4-methyl-2-(1H-pyrrolo[3,2-c]pyridin-2-ylmethyl)pentan-2-ol]",,potent agonists
potent activity,"CC(C)(CC(O)(Cc1ccnc2ccccc12)C(F)(F)F)c1cccc(F)c1 (stereo not drawn) [1,1,1-Trifluoro-4-(3-fluorophenyl)-4-methyl-2-quinolin-4-ylmethylpentan-2-ol]",,potent agonists
potent activity,"Cc1ccc(F)cc1C(C)(C)CC(O)(Cc1cc2ncncc2[nH]1)C(F)(F)F (stereo not drawn) [1,1,1-Trifluoro-4-(5-fluoro-2-methylphenyl)-4-methyl-2-(5H-pyrrolo[3,2-d]pyrimidin-6-ylmethyl)pentan-2-ol]",,potent agonists
potent activity,"CC(C)(CC(O)(Cc1cc2ccccc2[nH]1)C(F)(F)F)c1cccc(F)c1 (stereo not drawn) [1,1,1-Trifluoro-4-(3-fluorophenyl)-2-(1H-indol-2-ylmethyl)-4-methylpentan-2-ol]",,potent agonists
potent activity,"COc1ccc(F)cc1C(C)(C)CC(O)(Cc1cc2c(C)cncc2[nH]1)C(F)(F)F (stereo not drawn) [1,1,1-Trifluoro-4-(5-fluoro-2-methoxyphenyl)-4-methyl-2-(4-methyl-1H-pyrrolo[2,3-c]pyridin-2-ylmethyl)pentan-2-ol]",,potent agonists
potent activity,"CC(C)(CC(O)(Cc1ccnc2ccccc12)C(F)(F)F)c1ccc(F)cc1 (stereo not drawn) [1,1,1-Trifluoro-4-(4-fluorophenyl)-4-methyl-2-quinolin-4-ylmethylpentan-2-ol]",,potent agonists
potent activity,"CC(C)(CC(O)(Cc1cc2ccccc2[nH]1)C(F)(F)F)c1ccccn1 (stereo not drawn) [1,1,1-Trifluoro-2-(1H-indol-2-ylmethyl)-4-methyl-4-pyridin-2-ylpentan-2-ol]",,potent agonists
potent activity,"CC(C)(CC(O)(Cc1cc2cc(C(F)(F)F)ccc2[nH]1)C(F)(F)F)c1cc(F)ccc1O (stereo not drawn) [4-Fluoro-2-[4,4,4-trifluoro-3-hydroxy-1,1-dimethyl-3-(5-trifluoromethyl-1H-indol-2-ylmethyl)butyl]phenol]",,potent agonists
potent activity,"COc1ccc(F)cc1C(C)(C)CC(O)(Cc1[nH]c2ccncc2c1C)C(F)(F)F (stereo not drawn) [1,1,1-Trifluoro-4-(5-fluoro-2-methoxyphenyl)-4-methyl-2-(3-methyl-1H pyrrolo[3,2-c]pyridin-2-ylmethyl)pentan-2-ol]",,potent agonists
potent activity,"COc1ccc(F)cc1C(C)(C)CC(O)(Cc1cc2cnncc2s1)C(F)(F)F (stereo not drawn) [1,1,1-Trifluoro-4-(5-fluoro-2-methoxyphenyl)-4-methyl-2-thieno[2,3-d]pyridazin-2-ylmethylpentan-2-ol]",,potent agonists

# From patent US8741897B2, “Glucocorticoid mimetics, methods of making them, pharmaceutical compositions and uses thereof” (Boehringer Ingelheim Pharmaceuticals Inc., priority 2003, dated 2014)
